Data published in patent publication US20250304623A1, “PEPTIDES FOR INTRACELLULAR DELIVERY” (UNIVERSIDADE DE SANTIAGO DE COMPOSTELA, priority 2022, published 2025).

Columns and labels:
Assay type in all cases: cell-based
A549 cells [1] = assay: EGFP mRNA delivery, robotic library screening, A549
In short: (§1)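 Transfection used amphiphile at final 2.5, 5 or 10 μM with EGFP mRNA (25 ng/well) for 4 h without serum, then medium with 10% FBS. Plate-reader EGFP signal at 72 h, untreated background removed, mean of triplicates.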

ARPE19 cells = assay: EGFP mRNA delivery, robotic library screening, ARPE19; details: Petroselinyl
In short: as §1

A549 cells [2] = assay: RLuc pDNA delivery, robotic library screening, A549
In short: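 A549 cells in DMEM+10% FBS were washed twice with PBS and exposed for 4 h to amphiphile/RLuc pDNA complexes prepared from DMSO stocks diluted in DMEM. After medium replacement and 72 hours, cells in HBSS were incubated at 37° C. for 30 minutes, basal then total luminescence measured after 5 μM coelenterazine h; background from untransfected cells was subtracted.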

HepG2 cells [3] = assay: EGFP mRNA delivery, robotic library screening, HepG2; details: HepG2 cells
In short: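 This robotic library screen tested delivery of CleanCap EGFP mRNA (5moU) into HepG2 cells using amphiphilic molecules. Complexes were freshly prepared at room temperature and added to the cells, and the medium was then replaced with fresh DMEM plus 10% FBS. Total EGFP fluorescence was measured in a plate reader at 72 h in triplicate, with untreated-cell background subtracted.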

HepG2 cells [4] = assay: RLuc pDNA delivery, robotic library screening, HepG2
In short: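 After the 4 h exposure the complexes were replaced with fresh DMEM plus 10% FBS. At 72 hours cells were washed with HBSS, kept 30 minutes at 37° C. for basal readings, then given coelenterazine h (5 μM final) for 10 minutes before total luminescence was read. Triplicate means had untransfected background subtracted and were also expressed relative to Lipofectamine® 2000 set at 1.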

Substance: Ac-RHLK*RLK*RRLK*RL-NH2 (Ac-RHLKRLKRRLKRL-NH2; not fully specified (residues 4, 7, 11); printed as Ac-RHLK*RLK*RRLK*RL-NH2; also: linker on K* not given here) [13(Arg-His)]
- mean fluorescence intensity (EGFP mRNA) (A549 cells [1]; Dodecanal, 2.5 μM): 626
- mean fluorescence intensity (EGFP mRNA) (A549 cells [1]; Myristoleyl, 2.5 μM): 392
- mean fluorescence intensity (EGFP mRNA) (A549 cells [1]; Oleyl, 2.5 μM): 886
- mean fluorescence intensity (EGFP mRNA) (A549 cells [1]; Oleyl, 5 μM): 719
- mean fluorescence intensity (EGFP mRNA) (A549 cells [1]; Oleyl, 10 μM): 386
- mean fluorescence intensity (EGFP mRNA) (A549 cells [1]; Palmitoleyl, 2.5 μM): 1177
- mean fluorescence intensity (EGFP mRNA) (A549 cells [1]; Palmitoleyl, 5 μM): 348
- mean fluorescence intensity (EGFP mRNA) (A549 cells [1]; Palmitoleyl, 10 μM): 437
- mean fluorescence intensity (EGFP mRNA) (A549 cells [1]; Petroselinyl, 2.5 μM): 652
- mean fluorescence intensity (EGFP mRNA) (A549 cells [1]; Petroselinyl, 5 μM): 306
- mean fluorescence intensity (EGFP mRNA) (A549 cells [1]; Petroselinyl, 10 μM): 151
- mean fluorescence intensity (EGFP mRNA) (ARPE19 cells; 5 μM): 472
- mean fluorescence intensity (EGFP mRNA) (ARPE19 cells; 10 μM): 216
- mean luminescent intensity (RLuc pDNA) (A549 cells [2]; Dodecanal, 5 μM): 6594 RLU
- mean luminescent intensity (RLuc pDNA) (A549 cells [2]; Myristoleyl, 5 μM): 8162 RLU
- mean luminescent intensity (RLuc pDNA) (A549 cells [2]; Oleyl, 5 μM): 14340 RLU
- mean luminescent intensity (RLuc pDNA) (A549 cells [2]; Palmitoleyl, 5 μM): 8561 RLU
- mean luminescent intensity (RLuc pDNA) (A549 cells [2]; Palmitoleyl, 15 μM): 3763 RLU
- mean luminescent intensity (RLuc pDNA) (A549 cells [2]; Petroselinyl, 15 μM): 9721 RLU
- mean fluorescence intensity after transfection of EGFP mRNA (HepG2 cells [3]; Dodecanal, 10 μM): 782
- mean fluorescence intensity after transfection of EGFP mRNA (HepG2 cells [3]; Dodecanal, 15 μM): 868
- mean fluorescence intensity after transfection of EGFP mRNA (HepG2 cells [3]; Oleyl, 5 μM): 5251
- mean fluorescence intensity after transfection of EGFP mRNA (HepG2 cells [3]; Palmitoleyl, 5 μM): 4616
- mean fluorescence intensity after transfection of EGFP mRNA (HepG2 cells [3]; Palmitoleyl, 10 μM): 2070
- mean fluorescence intensity after transfection of EGFP mRNA (HepG2 cells [3]; Palmitoleyl, 15 μM): 1943
- mean fluorescence intensity after transfection of EGFP mRNA (HepG2 cells [3]; Petroselinyl, 5 μM): 1986
- mean fluorescence intensity after transfection of EGFP mRNA (HepG2 cells [3]; Petroselinyl, 10 μM): 508
- mean luminescent intensity (RLuc pDNA) (HepG2 cells [4]; Dodecanal, 5 μM): 38257 RLU
- mean luminescent intensity (RLuc pDNA) (HepG2 cells [4]; Dodecanal, 10 μM): 45978 RLU
- mean luminescent intensity (RLuc pDNA) (HepG2 cells [4]; Dodecanal, 15 μM): 15867 RLU
- mean luminescent intensity (RLuc pDNA) (HepG2 cells [4]; Myristoleyl, 5 μM): 270920 RLU
- mean luminescent intensity (RLuc pDNA) (HepG2 cells [4]; Myristoleyl, 10 μM): 65274 RLU
- mean luminescent intensity (RLuc pDNA) (HepG2 cells [4]; Myristoleyl, 15 μM): 23425 RLU
- mean luminescent intensity (RLuc pDNA) (HepG2 cells [4]; Oleyl, 5 μM): 123820 RLU
- mean luminescent intensity (RLuc pDNA) (HepG2 cells [4]; Oleyl, 15 μM): −1443 RLU
- mean luminescent intensity (RLuc pDNA) (HepG2 cells [4]; Palmitoleyl, 5 μM): 211155 RLU
- mean luminescent intensity (RLuc pDNA) (HepG2 cells [4]; Palmitoleyl, 10 μM): 107841 RLU
- mean luminescent intensity (RLuc pDNA) (HepG2 cells [4]; Palmitoleyl, 15 μM): 24788 RLU
- mean luminescent intensity (RLuc pDNA) (HepG2 cells [4]; Petroselinyl, 10 μM): 133806 RLU
- mean luminescent intensity (RLuc pDNA) (HepG2 cells [4]; Petroselinyl, 15 μM): 41128 RLU
